# Test system: SEM cells
# Test: cell viability relative to DMSO control; higher = less cytotoxic
# Conditions: 48 h
# Method in brief: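 NOMO1 or SEM cells were plated at 500 cells/well and P12-Ichikawa cells at 1000 cells/well in 1536-well plates (5 μl), after each leukemia line had been adapted for at least four passages in each medium. Pin dosing delivered library compounds in DMSO at 11 threefold concentrations, 47 μM to 0.79 nM. CellTiter-Glo One luminescence was read after 48 h at 37°C. Viability is reported as a per-plate percentage of DMSO wells, with cell-free wells as background.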
# [1] = HPLM + 10% dialyzed FBS, 0.000781 µM
# [2] = HPLM + 10% dialyzed FBS, 0.00234 µM
# [3] = HPLM + 10% dialyzed FBS, 0.00702 µM
# [4] = HPLM + 10% dialyzed FBS, 0.0211 µM
# [5] = HPLM + 10% dialyzed FBS, 0.0632 µM
# [6] = HPLM + 10% dialyzed FBS, 0.19 µM
# [7] = HPLM + 10% dialyzed FBS, 0.569 µM
# [8] = HPLM + 10% dialyzed FBS, 1.71 µM
# [9] = HPLM + 10% dialyzed FBS, 5.12 µM
# [10] = HPLM + 10% dialyzed FBS, 15.4 µM
# [11] = HPLM + 10% dialyzed FBS, 46.1 µM
# [12] = RPMI 5 mM glucose + 10% FBS, 0.000781 µM
# [13] = RPMI 5 mM glucose + 10% FBS, 0.00234 µM
# [14] = RPMI 5 mM glucose + 10% FBS, 0.00702 µM
# [15] = RPMI 5 mM glucose + 10% FBS, 0.0211 µM
# [16] = RPMI 5 mM glucose + 10% FBS, 0.0632 µM
# [17] = RPMI 5 mM glucose + 10% FBS, 0.19 µM
# [18] = RPMI 5 mM glucose + 10% FBS, 0.569 µM
# [19] = RPMI 5 mM glucose + 10% FBS, 1.71 µM
# [20] = RPMI 5 mM glucose + 10% FBS, 5.12 µM
# [21] = RPMI 5 mM glucose + 10% FBS, 15.4 µM
# [22] = RPMI 5 mM glucose + 10% FBS, 46.1 µM
# [23] = RPMI 5 mM glucose + 10% dialyzed FBS, 0.000781 µM
# [24] = RPMI 5 mM glucose + 10% dialyzed FBS, 0.00234 µM
# [25] = RPMI 5 mM glucose + 10% dialyzed FBS, 0.00702 µM
# [26] = RPMI 5 mM glucose + 10% dialyzed FBS, 0.0211 µM
# [27] = RPMI 5 mM glucose + 10% dialyzed FBS, 0.0632 µM
# [28] = RPMI 5 mM glucose + 10% dialyzed FBS, 0.19 µM
# [29] = RPMI 5 mM glucose + 10% dialyzed FBS, 0.569 µM
# [30] = RPMI 5 mM glucose + 10% dialyzed FBS, 1.71 µM
# [31] = RPMI 5 mM glucose + 10% dialyzed FBS, 5.12 µM
# [32] = RPMI 5 mM glucose + 10% dialyzed FBS, 15.4 µM
# [33] = RPMI 5 mM glucose + 10% dialyzed FBS, 46.1 µM
Structure (SMILES),cell viability [1],cell viability [2],cell viability [3],cell viability [4],cell viability [5],cell viability [6],cell viability [7],cell viability [8],cell viability [9],cell viability [10],cell viability [11],cell viability [12],cell viability [13],cell viability [14],cell viability [15],cell viability [16],cell viability [17],cell viability [18],cell viability [19],cell viability [20],cell viability [21],cell viability [22],cell viability [23],cell viability [24],cell viability [25],cell viability [26],cell viability [27],cell viability [28],cell viability [29],cell viability [30],cell viability [31],cell viability [32],cell viability [33]
O=C1CCC[C@@H]2[C@H]3CCCN4CCC[C@@H](CN12)[C@@H]34,44.2%,65.4%,55.2%,65.6%,72.7%,73.2%,72.3%,78.1%,67.5%,71.3%,73%,73%,87%,75.5%,82.4%,92.8%,92.2%,93.2%,84%,63.1%,80%,72.6%,60.4%,79.1%,62.4%,89.7%,73.9%,82.6%,77.6%,72.3%,64.2%,68.5%,68.3%
COc1cc([C@@H](CC(=O)O)c2ccc(C)c(CN3C[C@@H](C)Oc4ccccc4[S+]3(=O)[O-])c2)cc2nnn(C)c12,97.2%,104%,104%,108%,106%,103%,108%,102%,87%,88.4%,70.2%,115%,111%,133%,134%,87%,82.6%,83.7%,96.6%,67.5%,18.1%,14.5%,116%,116%,110%,104%,104%,78.5%,83.2%,89.7%,74.3%,64.4%,53.9%
COc1ccc(C(CN(C)C)C2(O)CCCCC2)cc1 (centres undefined),83.7%,134%,106%,134%,124%,118%,106%,107%,117%,116%,104%,78.5%,132%,122%,110%,124%,125%,103%,112%,119%,120%,95.9%,64.9%,120%,122%,134%,163%,138%,115%,122%,148%,118%,135%
CO[C@@]12[C@H](COC(N)=O)C/3=C(N1C[C@@H]4N[C@H]24)/C(=O)/C(=C(N)\C3=O)C,123%,123%,123%,114%,115%,115%,125%,121%,95.7%,108%,81.7%,91.7%,97.2%,90.7%,96.2%,90%,97.1%,75.5%,95.3%,86.5%,92.2%,74%,131%,121%,124%,112%,121%,112%,116%,125%,118%,114%,85.3%
Cc1cn([C@H]2C=C[C@@H](CO)O2)c(=O)[nH]c1=O,88.9%,106%,104%,124%,114%,99.6%,109%,130%,127%,112%,103%,89.5%,110%,109%,108%,110%,107%,117%,110%,104%,126%,106%,91.2%,93.9%,104%,112%,118%,96.4%,107%,125%,116%,104%,74.2%
Cc1nc2cc(C(=O)N3CCC4(CC3)CC(=O)c3c(cnn3C(C)C)C4)ccc2[nH]1,55.6%,106%,94.6%,104%,111%,114%,118%,105%,106%,124%,109%,–,–,–,–,–,–,–,–,–,–,–,50%,109%,115%,158%,110%,122%,142%,122%,118%,126%,51.6%
OC1=CC=C(C=C1)\C2=C\OC3=C(C(=CC(=C3)O)O)C2=O,95.4%,109%,96.8%,105%,108%,119%,112%,79.1%,105%,102%,74.8%,93.1%,82.2%,89.8%,86%,91%,95.7%,94.2%,56.6%,91.9%,72.7%,36.2%,94.5%,103%,104%,102%,119%,115%,115%,65.1%,92.6%,101%,59%
COc1ccc(OC)c(-c2nnc3ccc(-c4ccc(OC)c(O[C@@H]5CCOC5)c4)nn23)c1,105%,106%,124%,115%,119%,127%,125%,123%,134%,119%,86.4%,–,–,–,–,–,–,–,–,–,–,–,103%,109%,117%,115%,116%,112%,123%,131%,117%,122%,89.7%
O=C(CC12CC3CC(CC(C3)C1)C2)Nc1cccc2nc(NCCNCCO)ccc12,81.1%,82.1%,73.8%,96.5%,78.2%,77.8%,93.8%,64.1%,84.6%,101%,36.3%,90.5%,99.3%,83.6%,96.3%,75.6%,76.1%,94.4%,83.3%,82.7%,101%,21.9%,82.8%,87.7%,65.3%,94.8%,81.6%,72.5%,102%,78.7%,94.6%,82.6%,40%
CCC(C)N1\N=C/N(C1=O)C2=CC=C(C=C2)N3CCN(CC3)C4=CC=C(OC[C@H]5CO[C@@](C[N]6C=NC=N6)(O5)C7=CC=C(Cl)C=C7Cl)C=C4 (some centres undefined),94.1%,106%,119%,116%,119%,124%,105%,122%,120%,112%,107%,–,–,–,–,–,–,–,–,–,–,–,78.4%,116%,115%,116%,113%,98.6%,109%,115%,115%,117%,105%
COc1cc2ncn(-c3cc(OCc4ccccc4[S+](C)(=O)[O-])c(C#N)s3)c2cc1OC,102%,102%,90.9%,105%,95.1%,98.3%,98.3%,103%,78.5%,95.7%,82.4%,114%,110%,100%,124%,121%,110%,108%,107%,94.4%,122%,93.4%,92.4%,107%,89.1%,103%,98.9%,110%,112%,101%,106%,98.7%,78.9%
CC(NC(C)(C)C)C(=O)c1cccc(Cl)c1 (centres undefined),94.9%,120%,102%,100%,109%,104%,108%,64.6%,127%,46%,103%,106%,123%,117%,108%,114%,119%,127%,73.2%,125%,23.1%,98.9%,99.9%,128%,123%,112%,117%,140%,139%,71.9%,135%,35.7%,126%
CCc1cc2c(cc1N1CCC(N3CCOCC3)CC1)C(C)(C)c1[nH]c3cc(C#N)ccc3c1C2=O,60.6%,55%,70.7%,102%,122%,121%,114%,99%,95.6%,70.2%,28.1%,53.8%,49.4%,71.1%,77.1%,107%,107%,103%,96.7%,88.3%,46.7%,12.8%,60.3%,54.3%,73.8%,97.7%,111%,129%,103%,114%,108%,70.8%,20.3%
C[C@@H]1CN(Cc2ccc(F)cc2)[C@@H](C)CN1C(=O)c1cc2c(C(=O)C(=O)N(C)C)cn(C)c2cc1Cl,97.6%,99.7%,100%,111%,111%,109%,106%,102%,85.6%,98.2%,97.2%,84.5%,78.1%,85%,87.2%,101%,91.1%,96.8%,87.4%,97.6%,72.3%,57%,115%,104%,110%,107%,119%,108%,108%,109%,82.3%,97.2%,75.4%
CCC[S+](=O)([O-])Nc1ccc(F)c(C(=O)c2c[nH]c3ncc(Cl)cc23)c1F,108%,137%,121%,123%,123%,121%,129%,103%,107%,17.9%,9.67%,–,–,–,–,–,–,–,–,–,–,–,107%,120%,117%,121%,132%,131%,122%,120%,121%,46.9%,9.16%
CCN(CC)CCOc1ccc(Cc2ccccc2)cc1,102%,101%,110%,88.4%,92.2%,102%,104%,89.4%,87.1%,75.9%,46.6%,107%,98%,98.9%,102%,95.5%,102%,91.9%,88.4%,44.9%,11.8%,9.79%,108%,102%,101%,113%,93.8%,110%,104%,101%,85.1%,19.4%,16.9%
